The source of these data is patent US20090093544A1, “INSECTICIDAL COMPOSITIONS HAVING IMPROVED EFFECT” (Bayer CropScience AG, priority 2005, published 2009).

The assay has as its system Spodoptera frugiperda. The assay is described as follows: Spodoptera frugiperda test (SPODFR), spray treatment of maize plants. In kind it is in vivo. The settings on record: 168 h, read-out: Mortality/% 7 d. On the procedure:
Spodoptera frugiperda—Test (SPODFR)
For the preparation of an expedient active ingredient preparation, 1 part by weight of active ingredient is mixed with the stated amounts of solvent and emulsifier, and the concentrate is diluted with emulsifier-containing water to the desired concentration. If it is necessary to add ammonium salts or ammonium salts and penetration promoter, the corresponding amount is pipetted into each of the ready preparation solution after the dilution.
Maize plants (Zea mais) are treated with the active ingredient preparation in the desired concentration by spraying and are populated with caterpillars of the fall armyworm (Spodoptera frugiperda) as long as the leaves are still moist.
After the desired time, the kill in % is determined. 100% means that all caterpillars were killed; 0% means that no caterpillars were killed.

`Cc1cc(C(F)(C(F)(F)F)C(F)(F)F)ccc1NC(=O)c1cccc(Cl)c1C(=O)N[C@@H](C)CS(C)(=O)=O` [(Ib)]: the mortality at 0.192 g/ha turned out to be 70%.
